Data taken from patent publication US20190083497A1, “MODULATION OF BLOOD BRAIN BARRIER PERMEABILITY” (Cornell University, priority 2008, published 2019).

What was measured:
Z310 cells = test: Jurkat cell migration across Z310 choroid plexus cell transwell; assay type: cell-based, murine; details: Z310 cells on Transwell; migrated cells counted after 24 hours; n=1
Method: The choroid plexus (“CP”) controls lymphocyte migration into the CNS. The CP expresses the A1 and A2a adenosine receptors. EAE is prevented in mice when A2a adenosine receptor activity is blocked. EAE is enhanced when the A1 adenosine receptor is missing. It was hypothesized that A2a adenosine receptor activation promotes lymphocyte migration across the CP. Z310 cells are a murine choroid plexus cell line. To test the hypothesis, Transwell membranes were seeded with Z310 cells and allowed to grow to confluencey. 2×10^6 Jurkat cells were added to the upper chamber with or with out NECA (n=1, general AR agonist), CCPA (n=1, A1AR agonist), CGS 21680 (n=1, A2AAR agonist), or DMSO vehicle(n=1). After 24 hours, migrated cells in the lower chamber were counted. Values are relative to the number of cells that migrate through non-Z310 seeded transwells and the results are shown in FIG. 12.

hCMEC/D3 cells [1] = test: cAMP levels in hCMEC/D3 cells (cAMP Screen kit); assay type: cell-based, human; details: 15 minutes treatment
Method: Adenosine receptor activation regulates cAMP levels in cells. In order to determine the sensitivity of human brain endothelial cells to adenosine receptor induced cAMP regulation, human brain endothelial cells were cultured with adenosine receptor agonists at various concentrations, followed by cAMP level analysis, as shown in FIG. 13.
HCMECD3 cells were grown to confluencey on 24 well plates. As adenosine receptor (“AR”) stimulation is known to influence cAMP levels, cells were treated with or without various concentrations of NECA (general AR agonist), CCPA (A1AR agonist), CGS 21680 (A2AAR agonist), DMSO vehicle, or Forksolin (induces cAMP). After 15 minutes, lysis buffer was added and the cells were frozen at −80 C to stop the reaction. Duplicate samples were used for each condition. cAMP levels were assayed using a cAMP Screen kit (Applied Biosystems, Foster City, Calif.).

hCMEC/D3 cells [2] = test: Jurkat cell migration across hCMEC/D3 transwell in vitro BBB; assay type: cell-based, human; details: hCMEC/D3 on Transwell; migrated cells counted after 24 hours
Source text: The blood brain barrier (BBB) is comprised of endothelial cells. During late stages of EAE, lymphocytes are known to cross the BBB. In order to determine if adenosine receptor stimulation of brain endothelial cells could promote lymphocyte migration through the BBB, an in vitro BBB was established. The human brain endothelial cell line hCMEC/D3 (Weksler et al., “Blood-brain Barrier-specific Properties of a Human Adult Brain Endothelial Cell Line,” J. Neurochem. 19(13):1872-4 (2005); Poller et al., “The Human Brain Endothelial Cell Line hCMEC/D3 as a Human Blood-brain Barrier Model for Drug Transport Studies,” J. Neurochem. 107(5):1358-1368 (2008), which are hereby incorporated by reference in their entirety) was obtained, which has been previously described as having BBB properties.
hCMEC/D3 cells were seeded onto Transwell and allowed to grow to confluencey. 2×10^6 Jurkat cells were added to the upper chamber with or without NECA (general adenosine receptor [AR] agonist), CCPA (A1AR agonist), CGS 21680 (A2AAR agonist), or DMSO vehicle. After 24 hours, migrated cells in the lower chamber were counted. Values are relative to the number of cells that migrate through non-HCMECD3 seeded transwells.

EAE-induced mice = test: EAE induction and scoring (MOG35-55/CFA + pertussis toxin); assay type: in vivo, mouse
Method: C57BL/6 and tcrα^−/− mice on the C57BL/6 background were purchased from The Jackson Laboratories. Mice were bred and housed under specific pathogen-free conditions at Cornell University or the University of Turku. For adenosine receptor blockade experiments, mice were given drinking water supplemented with 0.6 g/L of caffeine (Sigma) or 2 mg/kg SCH58261 (1 mg/kg s.c. and 1 mg/kg i.p.) in DMSO (45% vol. in PBS) or 45% DMSO alone starting 1 day before EAE induction and continuing throughout the experiment. All procedures performed on mice were approved by the relevant animal review committee.
EAE was induced by subjecting mice to the myelin oligodendrocyte glycoprotein (“MOG”) EAE-inducing regimen as described in Swanborg, “Experimental Autoimmune Encephalomyelitis in Rodents as a Model for Human Demyelinating Disease,” Clin. Immunol. […] Briefly, a 1:1 emulsion of MOG35-55 peptide (3 mg/ml in PBS) (Invitrogen) and complete Freund's adjuvant (CFA, Sigma) was injected subcutaneously (50 μl) into each flank. Pertussis toxin (PTX, 20 ng) (Biological Laboratories Inc.) was given intravenously (200 μl in PBS) at the time of immunization and again 2 days later. Mice were scored daily for EAE based on disease symptom severity; 0=no disease, 0.5 -1=weak/limp tail, 2=limp tail and partial hind limb paralysis, 3=total hind limb paralysis, 4=both hind limb and fore limb paralysis, 5=death. Mice with a score of 4 were euthanized.
Wild type mice were given 1 mg/kg of SCH58261 in DMSO or DMSO alone both i.p. and s.c. (for a total of 2 mg/kg) 1 day prior to EAE induction and daily for 30 days throughout the course of the experiment (FIG. 7C).

blood brain barrier = test: FITC-Dextran extravasation through the brain endothelium; assay type: in vivo, mouse; details: 30 minutes after IP FITC Dextran
Method: In order to examine the effects of caffeine, a general adenosine receptor antagonist, on blood brain barrier permeability, mice were fed caffeine for several days and then injected with FITC Dextran, commonly used to assess endothelial permeability.
More particularly, mice were fed 0.6 g/l caffeine (Sigma, St. Louis, Mo.) in water or regular water ad lib for five days. Mice were injected IP with FITC Dextran (10,000 MW, Molecular Probes, Eugene, Oreg.) and after 30 minutes mice were perfused with ice cold PBS via the left ventricle. Brains were removed and snap frozen in OCT (Tissue Tek, Torrance, Calif.) and stored at −80° C. until sectioning. Tissue sections (5 μm) were stained with hematoxylin for light microscopy and with DAPI for a fluorescent counterstain.

For `OC[C@H]1O[C@@H](n2cnc3c(NC4CCCC4)nc(Cl)nc32)[C@H](O)[C@@H]1O` [CCPA], the “lymphocyte (Jurkat) migration across the CP” value (Z310 cells) was “induced lymphocyte migration at high levels”, the cAMP levels (hCMEC/D3 cells [1]; high levels of the agonist) was “increased cAMP levels” and the “lymphocyte (Jurkat) migration across the in vitro BBB” value (hCMEC/D3 cells [2]) was “induced lymphocyte migration at high levels”.

With `CCNC(=O)[C@H]1O[C@@H](n2cnc3c(N)nc(NCCc4ccc(CCC(=O)O)cc4)nc32)[C@H](O)[C@@H]1O` [CGS] the “lymphocyte (Jurkat) migration across the CP” value (Z310 cells) was “promoted lymphocyte migration across the CP”, the cAMP levels (hCMEC/D3 cells [1]; various concentrations) was “slightly increased cAMP levels” and the “lymphocyte (Jurkat) migration across the in vitro BBB” value (hCMEC/D3 cells [2]) was “promoted lymphocyte migration across the in vitro BBB when used at a lower concentration”.

`Cn1c(=O)c2c(ncn2C)n(C)c1=O` [caffeine] was tested, and the “EAE development (mean EAE score)” value (EAE-induced mice; cd73-/- mice, caffeine 0.6 g/L in drinking water from 1 day prior to and throughout the EAE experiment) was “did not develop EAE”, the “EAE development (mean EAE score)” value (EAE-induced mice; wild type mice, caffeine 0.6 g/L in drinking water from 1 day prior to and throughout the EAE experiment) was “dramatically protected against EAE development” and the “FITC-Dextran extravasation across the blood brain barrier (green color of brain sections)” value (blood brain barrier; CD73-/- mice fed 0.6 g/l caffeine in water for five days) was “much less intense green color than wild type mice”. The “FITC-Dextran extravasation across the blood brain barrier (green color of brain sections)” value (blood brain barrier; wild type mice fed 0.6 g/l caffeine in water for five days) was “intensely green background”.

B1: PEG-ADA: Pegylated adenosine deaminase (protein, UniProt P56658 2-363, looked up)
Adenosine deaminase: AQTPAFNKPKVELHVHLDGAIKPETILYYGRKRGIALPADTPEELQNIIGMDKPLSLPEFLAKFDYYMPAIAGCREAVKRIAYEFVEMKAKDGVVYVEVRYSPHLLANSKVEPIPWNQAEGDLTPDEVVSLVNQGLQEGERDFGVKVRSILCCMRHQPSWSSEVVELCKKYREQTVVAIDLAGDETIEGSSLFPGHVKAYAEAVKSGVHRTVHAGEVGSANVVKEAVDTLKTERLGHGYHTLEDATLYNRLRQENMHFEVCPWSSYLTGAWKPDTEHPVVRFKNDQVNYSLNTDDPLIFKSTLDTDYQMTKNEMGFTEEEFKRLNINAAKSSFLPEDEKKELLDLLYKAYGMPSPASAEQCL
modifications: PEG
notes: Pegylated adenosine deaminase
In the case of B1, the “EAE development (mean EAE score)” value (EAE-induced mice; wild type mice, 15 units/kg body weight i.p. every 4 days, vs PBS vehicle) is reported as “inhibits development of EAE in wild type mice”.
